Earlier results, collected in patent US20160120807A1, “CELL-SURFACE DECORATION WITH ACTIVE AGENTS” (University of Louisville Research Foundation, Inc., priority 2005, published 2016).

Assays:
NPY Y1 receptor [1] = target: T1, NPY Y1 receptor (Homo sapiens, UniProt P25929)
T1 construct: host or cells: smooth muscle cells; vessel after angioplasty
T1 sequence (P25929 1-384): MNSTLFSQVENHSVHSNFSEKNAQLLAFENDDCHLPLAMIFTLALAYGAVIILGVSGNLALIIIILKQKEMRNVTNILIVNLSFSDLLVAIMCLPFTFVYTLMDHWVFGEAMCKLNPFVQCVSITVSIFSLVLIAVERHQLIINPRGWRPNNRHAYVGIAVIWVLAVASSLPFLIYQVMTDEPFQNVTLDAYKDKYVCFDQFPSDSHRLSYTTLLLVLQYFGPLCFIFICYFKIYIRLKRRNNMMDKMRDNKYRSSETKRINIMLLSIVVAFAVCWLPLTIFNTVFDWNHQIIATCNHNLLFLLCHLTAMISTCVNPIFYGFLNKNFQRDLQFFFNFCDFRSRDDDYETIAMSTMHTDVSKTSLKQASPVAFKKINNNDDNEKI

NPY Y1 receptor [2] = target: T1, NPY Y1 receptor; remark: listed apart in the source

neointimal hyperplasia after angioplasty (NPY Y1 receptor [1]): reduces neointimal hyperplasia
Compound: N=C(N)NCCC[C@@H](NC(=O)C(c1ccccc1)c1ccccc1)C(=O)NCc1ccc(O)cc1 [BIBP3226, (R)—N2-(diphenylacetyl)-N-[(4-hydroxy-phenyl)methyl]-D-arginine-amide]
mitogen-activated protein kinase (MAPK) activity in smooth muscle cells (NPY Y1 receptor [2]): reduces mitogen-activated protein kinase (MAPK) activity
